Assay results as given in patent publication EP0388950A2, “New 1,3-dioxolan-4-yl derivatives of 2-picolylamine” (J. URIACH & CIA. S.A., priority 1989, dated 1990).

Key:
[1] = test system: hypotension induced by PAF; assay: Inhibition of the hypotensive effect induced by PAF in normotense rats; format: in vivo, Sprage Dawley rats; conditions: anesthetized male rats; compound given through the femoral vein 3 min before PAF (0.5 mcg/Kg, i.v.); average arterial pressure
Experimental: Inhibition of the hypotensive effect induced by PAF in normotense rats.
Male Sprage Dawley rats, of 180-220 g of weight, anesthetized with sodium pentobarbital (50 mg/Kg, i.p. 1 mL/100 g) have been used. In order to measure the average arterial pressure, a polyethylene catheter is introduced into the carotid artery. The arterial pressure is recorded with the help of a transducer connected with a R611 Beckman polygraph. The tested compounds are administered through the femoral vein 3 min before the injection of PAF (0.5 mcg/Kg, i.v.).

[2] = test system: platelet aggregation induced by PAF; assay: Inhibition of platelet aggregation induced by PAF (rabbit platelet rich plasma, Born nephelometric technique); format: cell-based, New Zealand albino rabbits; conditions: Oryctolagus cuniculus, concentration needed to inhibit platelet aggregation by 50%, PAF (C₁₈) 16 nM final, read-out: IC₅₀
Experimental: Inhibition of platelet aggregation induced by PAF.
The blood is obtained by cardiac puncture of male New Zealand albino rabbits (between 2 and 2.5 Kg of weight) and coagulation is prevented by adding 1 part of 3.16% sodium citrate dihydrate in 9 parts of blood. The platelet rich plasma (PRP) is prepared by blood centrifugation at 250xg for 10 min. at 4°C and it is diluted with platelet poor plasma (PPP) by additional centrifugation at 3000xg for 10 min. The amount of platelets is adjusted to […]. The platelet aggregation induced by PAF (C₁₈; prepared in our laboratory) (16 nM, final) is determined by the Born nephelometric technique (J. Physiol., 1962, 162, 67) using a aggregometer Chrono-log 500. The activities of the inhibitors are expressed as IC₅₀, that is to say the concentration of the drug needed to inhibit the platelet aggregation by 50%.

For `CCCCCCCCCCCCCCCCCC1OCC(COC(=O)N(Cc2cccc[n+]2C)C(C)=O)O1.[I-]` (stereo not drawn) [Compound 3, 2-(N-Acetyl-N-(((2-heptadecyl-1,3-dioxolane-4-yl)methoxy)carbonyl)aminomethyl)-1-methylpyridinium iodide], which CI₅₀ [1] is on record?
Its CI₅₀ is 0.9 mg/Kg,i.v.

What about the IC50 [2] of the same compound?
The IC50 was 2200 nM.

Which CI₅₀ [1] does the source give for `CCCCCCCCCCCCCCCCCCOCC1OCC(COC(=O)N(Cc2cccc[n+]2CC)C(C)=O)O1.[I-]` (stereo not drawn) [Compound 11, 2(N-Acetyl-N-(((2-octadecyloxymethyl-1,3-dioxolan-4-yl)methoxy)carbonyl)aminomethyl)-1-ethylpyridinium iodide] here?
Its CI₅₀ is <0.1 mg/Kg,i.v.

And the IC50 [2]?
The IC50 was 160 nM.

What does the source list for `CCCCCCCCCCCCCCCCCC1OCC(COC(=O)N(Cc2cccc[n+]2CC)C(C)=O)O1.[I-]` (stereo not drawn) [Compound 4, 2-(N-acetyl-N-(((2-heptadecyl-1,3-dioxolane-4-yl)methoxy)carbonyl)aminomethyl)-1-ethylpyridinium iodide]?
CI₅₀ [1]: 0.2 mg/Kg,i.v.; IC50 [2]: 210 nM

Which CI₅₀ [1] does the source give for `CCCCCCCCCCCCCCCCOCC1OCC(COC(=O)N(Cc2cccc[n+]2CC)C(C)=O)O1.[I-]` (stereo not drawn) [Compound 7, 2-(N-Acetyl-N-(((2-hexadecyloxymethyl-1,3-dioxolan-4-yl)methoxy)carbonyl)aminomethyl)-1-ethylpyridinium iodide] here?
Its CI₅₀ is <0.1 mg/Kg,i.v.

And the IC50 [2]?
Its IC50 is less than 100 nM.

Which results are given for `CCCCCCCCCCCCCCCCCCOCC1OCC(COC(=O)N(Cc2cccc[n+]2C)C(C)=O)O1.[I-]` (stereo not drawn) [Compound 10, 2-(N-Acetyl-N-(((2-octadecyloxymethyl-1,3-dioxolan-4-yl)methoxy)carbonyl)aminomethyl)-1-methylpyridinium iodide]?
CI₅₀ [1]: 0.35 mg/Kg,i.v.; IC50 [2]: 1200 nM

Which results are given for `CCCCCCCCCCCCCCCNC(=O)OCC1OCC(COC(=O)N(Cc2cccc[n+]2CC)C(C)=O)O1.[I-]` (stereo not drawn) [Compound 14, 2(N-Acetyl-N-(((2-pentadecylcarbamoyloxymethyl-1,3-dioxolan-4-yl)methoxy)carbonyl)aminomethyl)-1-ethylpyridinium iodide]?
CI₅₀ [1]: <0.1 mg/Kg,i.v.; IC50 [2]: < 100 nM
